Patent publication US12479827B2, “Heteroaromatic carboxamide derivatives as plasma kallikrein inhibitors” (Boehringer Ingelheim International GmbH, priority 2020, dated 2025)

Tests used:
Assay type in all cases: biochemical
Human PKK = biological target: T1, Human PKK (Homo sapiens, UniProt P03952); experiment: Inhibition of PKK using an endpoint assay (human PKK); conditions: fluorogenic substrate H-Pro-Phe-Arg-AMC, 1 h room temperature, method names human or rat PKK, table does not say which
T1 construct: purchased Enzyme Research Laboratories
Procedure, shortened: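 Human PKK inhibition measured in 100 mM Tris, 150 mM NaCl, pH 7.8, 0.1% BSA, 0.05% Tween20, 1% DMSO. Endpoint format: reaction stopped with PPACK II at 1 μM final, fluorescence read at 355 nm excitation/460 nm emission.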

[1] = biological target: T2, PKK in kaolin activated human platelet poor plasma (Homo sapiens, UniProt P03952); experiment: Inhibition of PKK in kaolin activated human PPP; conditions: 25-750 μg/mL kaolin, global fit, text b200 calls the values IC90;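 note: readout is the rate of fluorogenic substrate cleavage in rfu per min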
T2 construct: Platelet poor plasma (PPP) obtained from human wholeblood; from tissue
Procedure: Platelet poor plasma (PPP) obtained from human wholeblood, anticoagulated with Na-Citrate, is incubated with various concentrations of the test compound together with either 25, 75, 250, or 750 μg/mL kaolin in assay buffer for 20 min at 37° C. such that for each kaolin dose used a concentration response is obtained for the test compound.

human TK1 = biological target: T3, human TK1 (Homo sapiens, UniProt P06870); experiment: Inhibition of TK1 (Ki); conditions: activated human TK1, substrate H-Pro-Phe-Arg-AMC, 24° C.
T3 construct: purchased R&D Systems
Procedure, shortened: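 Trypsin-activated human TK1 (31.25 nM) incubated at 24° C with 0.1 mM H-Pro-Phe-Arg-AMC and compound in Tris pH 7.8, 150 mM NaCl, 0.1% BSA, 0.05% Tween20, 1% DMSO. AMC fluorescence (ex 350/em 450 nm) read kinetically over 16 min; IC50 from four-parameter fit, converted to Ki using substrate KM.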

T1 sequence (P03952 20-390 limits assumed): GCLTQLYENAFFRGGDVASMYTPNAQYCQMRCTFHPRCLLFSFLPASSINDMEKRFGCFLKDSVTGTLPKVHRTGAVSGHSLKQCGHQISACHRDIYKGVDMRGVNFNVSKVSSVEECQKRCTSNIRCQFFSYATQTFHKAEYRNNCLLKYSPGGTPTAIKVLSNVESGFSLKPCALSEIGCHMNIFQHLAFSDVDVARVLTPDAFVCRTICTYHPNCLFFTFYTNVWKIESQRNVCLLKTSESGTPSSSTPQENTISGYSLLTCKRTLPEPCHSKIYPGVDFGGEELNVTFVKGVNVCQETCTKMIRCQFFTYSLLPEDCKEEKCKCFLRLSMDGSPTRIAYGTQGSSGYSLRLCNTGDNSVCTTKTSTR
T1 sequence (P03952 391-638 limits assumed): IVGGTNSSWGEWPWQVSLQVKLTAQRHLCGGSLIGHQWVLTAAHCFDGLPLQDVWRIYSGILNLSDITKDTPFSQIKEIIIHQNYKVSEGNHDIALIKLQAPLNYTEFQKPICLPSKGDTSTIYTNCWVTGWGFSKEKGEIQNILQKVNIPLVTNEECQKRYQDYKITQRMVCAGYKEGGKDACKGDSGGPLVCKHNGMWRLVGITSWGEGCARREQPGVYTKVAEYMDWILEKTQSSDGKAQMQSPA
T2 sequence (P03952 391-638 limits assumed): as above
T2 sequence (P03952 20-390 limits assumed): as the sequence (P03952 20-390 limits assumed) above
T3 sequence (P06870 25-262): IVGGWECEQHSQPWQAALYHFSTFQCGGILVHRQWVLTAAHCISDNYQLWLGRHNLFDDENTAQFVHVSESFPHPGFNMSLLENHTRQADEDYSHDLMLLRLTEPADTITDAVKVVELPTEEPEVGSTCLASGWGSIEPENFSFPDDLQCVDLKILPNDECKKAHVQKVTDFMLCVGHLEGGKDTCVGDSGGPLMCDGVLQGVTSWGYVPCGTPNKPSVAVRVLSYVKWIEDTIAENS

Compound	IC50 (Human PKK)	IC50 [1]	Ki (human TK1)
Cc1nc(N2CC3CC3C2)ccc1Cn1cc(C(=O)N[C@@H]2CCc3c2ncn3C)c(C(F)(F)F)n1 (stereo partly drawn) [Example 119, 1-[(6-{3-Azabicyclo[3.1.0]hexan-3-yl}-2-methylpyridin-3-yl)methyl]-N-[(4R)-1-methyl-1H,4H,5H,6H-cyclopenta[d]imidazol-4-yl]-3-(trifluoromethyl)-1H-pyrazole-4-carboxamide]	1.2 nM	1460 nM	1060 nM
Cc1nc(N2CC3CC3C2)ccc1Cn1cc(C(=O)N[C@@H]2CCc3c2ncn3C)c(C(C)(C)O)n1 (stereo partly drawn) [Example 125, 1-[(6-{3-Azabicyclo[3.1.0]hexan-3-yl}-2-methylpyridin-3-yl)methyl]-3-(2-hydroxypropan-2-yl)-N-[(4R)-1-methyl-1H,4H,5H,6H-cyclopenta-[d]imidazol-4-yl]-1H-pyrazole-4-carboxamide]	1.1 nM	2740 nM	> 10000 nM
COCc1nc(N2CC3CC3C2)ccc1Cn1cc(C(=O)N[C@@H]2CCc3c2ncn3C)cn1 (stereo partly drawn) [Example 49, 1-[(6-{3-Azabicyclo[3.1.0]hexan-3-yl}-2-(methoxymethyl)-pyridin-3-yl)methyl]-N-[(4R)-1-methyl-1H,4H,5H,6H-cyclopenta[d]imidazol-4-yl]-1H-pyrazole-4-carboxamide]	2.5 nM	254 nM	> 10000 nM
Cc1nc(N2CC3CC3C2)ncc1Cn1cnc(C(=O)N[C@@H]2CCc3c2ncn3C)c1 (stereo partly drawn) [Example 171, 1-[(2-{3-Azabicyclo[3.1.0]hexan-3-yl}-4-methylpyrimidin-5-yl)methyl]-N-[(4R)-1-methyl-1H,4H,5H,6H-cyclopenta[d]imidazol-4-yl]-1H-imidazole-4-carboxamide]	2.6 nM	268 nM	> 10000 nM
Cn1cnc2c1CC[C@H]2NC(=O)c1cnn(Cc2cnc(N3CC4CC4C3)cc2C(F)(F)F)c1 (stereo partly drawn) [Example 115, 1-[(6-{3-Azabicyclo[3.1.0]hexan-3-yl}-4-(trifluoromethyl)pyridin-3-yl)methyl]-N-[(4R)-1-methyl-1H,4H,5H,6H-cyclopenta[d]imidazol-4-yl]-1H-pyrazole-4-carboxamide]	4.1 nM	2660 nM	> 10000 nM
Cc1nc(N2CC3C(C2)C3(F)F)ncc1Cn1cc(C(=O)N[C@@H]2CCc3c2ncn3C)cn1 (stereo partly drawn) [Example 218, 1-[(2-{6,6-Difluoro-3-azabicyclo[3.1.0]hexan-3-yl}-4-methylpyrimidin-5-yl)methyl]-N-[(4R)-1-methyl-1H,4H,5H,6H-cyclopenta[d]imidazol-4-yl]-1H-pyrazole-4-carboxamide]	3.5 nM	646 nM	> 10000 nM
Cn1cnc2c1CC[C@H]2NC(=O)c1cnn(Cc2ccc(N3CC4CC4C3)nc2)c1 (stereo partly drawn) [Example 131, 1-[(6-{3-Azabicyclo[3.1.0]hexan-3-yl}pyridin-3-yl)methyl]-N-[(4R)-1-methyl-1H,4H,5H,6H-cyclopenta[d]imidazol-4-yl]-1H-pyrazole-4-carboxamide]	4.3 nM	962 nM	> 10000 nM
Cn1cnc2c1CC[C@H]2NC(=O)c1cnn(Cc2ccc(N3CC4CC4C3)nc2C(F)(F)F)c1 (stereo partly drawn) [Example 134, 1-[(6-{3-Azabicyclo[3.1.0]hexan-3-yl}-2-(trifluoromethyl)pyridin-3-yl)methyl]-N-[(4R)-1-methyl-1H,4H,5H,6H-cyclopenta[d]imidazol-4-yl]-1H-pyrazole-4-carboxamide]	1.7 nM	1030 nM	> 10000 nM
Cc1nc(N2CC3C(C2)C3(F)F)ncc1Cn1cnc(C(=O)N[C@@H]2CCc3c2ncn3C)c1 (stereo partly drawn) [Example 136, 1-[(2-{6,6-Difluoro-3-azabicyclo[3.1.0]hexan-3-yl}-4-methylpyrimidin-5-yl)methyl]-N-[(4R)-1-methyl-1H,4H,5H,6H-cyclopenta[d]imidazol-4-yl]-1H-imidazole-4-carboxamide]	2 nM	310 nM	> 10000 nM
Cn1cnc2c1CC[C@H]2NC(=O)c1cn(Cc2ccc(N3CC4CC4C3)c(C#N)c2)cn1 (stereo partly drawn) [Example 196, 1-[(4-{3-azabicyclo[3.1.0]hexan-3-yl}-3-cyanophenyl)methyl]-N-[(4R)-1-methyl-1H,4H,5H,6H-cyclopenta[d]imidazol-4-yl]-1H-imidazole-4-carboxamide]	1.5 nM	350 nM	> 10000 nM

Compounds with a lower IC50 (Human PKK), results first:

IC50 (Human PKK)	IC50 [1]	Ki (human TK1)	Compound
0.5 nM	180 nM	> 10000 nM	CCc1nc(N2CC3C(C2)C3(F)F)ccc1Cn1cc(C(=O)N[C@@H]2CCc3c2ncn3C)cn1 (stereo partly drawn) [Example 36, 1-[(6-{6,6-Difluoro-3-azabicyclo[3.1.0]hexan-3-yl}-2-ethylpyridin-3-yl)methyl]-N-[(4R)-1-methyl-1H,4H,5H,6H-cyclopenta[d]imidazol-4-yl]-1H-pyrazole-4-carboxamide]
0.4 nM	253 nM	> 10000 nM	Cc1c(Cn2cc(C(=O)N[C@@H]3CCc4c3ncn4C)cn2)ccc(N2CC3CC3C2)c1C#N (stereo partly drawn) [Example 193, 1-[(4-{3-azabicyclo[3.1.0]hexan-3-yl}-3-cyano-2-methylphenyl)methyl]-N-[(4R)-1-methyl-1H,4H,5H,6H-cyclopenta[d]imidazol-4-yl]-1H-pyrazole-4-carboxamide]
0.4 nM	278 nM	871 nM	Cc1c(Cn2cc(C(=O)N[C@@H]3CCc4c3ncn4C)cn2)cnc(N2CC3CC3C2)c1C#N (stereo partly drawn) [Example 116, 1-[(6-{3-Azabicyclo[3.1.0]hexan-3-yl}-5-cyano-4-methylpyridin-3-yl)methyl]-N-[(4R)-1-methyl-1H,4H,5H,6H-cyclopenta[d]imidazol-4-yl]-1H-pyrazole-4-carboxamide]
0.6 nM	280 nM	> 10000 nM	Cn1cnc2c1CC[C@H]2NC(=O)c1cn(Cc2ccc(N3CC4(CC4)C3)nc2Br)cn1 [Example 16, 1-[(6-{5-Azaspiro[2.3]hexan-5-yl}-2-bromopyridin-3-yl)methyl]-N-[(4R)-1-methyl-1H,4H,5H,6H-cyclopenta[d]imidazol-4-yl]-1H-imidazole-4-carboxamide]
0.7 nM	99 nM	> 10000 nM	CCc1nc(N2CC3(CC3)C2)ccc1Cn1cc(C(=O)N[C@@H]2CCc3c2ncn3C)nn1 [Example 20, 1-[(6-{5-Azaspiro[2.3]hexan-5-yl}-2-ethylpyridin-3-yl)methyl]-N-[(4R)-1-methyl-1H,4H,5H,6H-cyclo-penta[d]imidazol-4-yl]-1H-1,2,3-triazole-4-carboxamide]
0.9 nM	624 nM	> 10000 nM	Cc1nc(N2CC3CC3C2)ccc1Cn1cc(C(=O)N[C@@H]2CCc3c2ncn3C)c(CO)n1 (stereo partly drawn) [Example 217, 1-[(6-{3-Azabicyclo[3.1.0]hexan-3-yl}-2-methylpyridin-3-yl)methyl]-3-(hydroxymethyl)-N-[(4R)-1-methyl-1H,4H,5H,6H-cyclopenta[d]imidazol-4-yl]-1H-pyrazole-4-carboxamide]
0.6 nM	681 nM	> 10000 nM	COCc1nn(Cc2ccc(N3CC4C(C3)C4(F)F)nc2C)cc1C(=O)N[C@@H]1CCc2c1ncn2C (stereo partly drawn) [Example 126, 1-[(6-{6,6-Difluoro-3-azabicyclo[3.1.0]hexan-3-yl}-2-methylpyridin-3-yl)methyl]-3-(methoxymethyl)-N-[(4R)-1-methyl-1H,4H,5H,6H-cyclopenta[d]imidazol-4-yl]-1H-pyrazole-4-carboxamide]
0.6 nM	485 nM	> 10000 nM	Cc1nc(N2CC3(CC3)C2)ccc1Cn1cc(C(=O)N[C@@H]2CCc3c2ncn3C)cn1 [Example 169, 1-[(6-{5-Azaspiro[2.3]hexan-5-yl}-2-methylpyridin-3-yl)methyl]-N-[(4R)-1-methyl-1H,4H,5H,6H-cyclopenta[d]imidazol-4-yl]-1H-pyrazole-4-carboxamide]
1 nM	181 nM	> 10000 nM	Cc1nc(N2CC3C(C2)C3(F)F)ccc1Cn1cnc(C(=O)N[C@@H]2CCc3c2ncn3C)c1 (stereo partly drawn) [Example 24, 1-[(6-{6,6-Difluoro-3-azabicyclo[3.1.0]hexan-3-yl}-2-methylpyridin-3-yl)methyl]-N-[(4R)-1-methyl-1H,4H,5H,6H-cyclopenta[d]imidazol-4-yl]-1H-imidazole-4-carboxamide]
0.9 nM	1320 nM	> 10000 nM	COCc1nn(Cc2ccc(N3CC4CC4C3)nc2C)cc1C(=O)N[C@@H]1CCc2c1ncn2C (stereo partly drawn) [Example 123, 1-[(6-{3-Azabicyclo[3.1.0]hexan-3-yl}-2-methylpyridin-3-yl)methyl]-3-(methoxymethyl)-N-[(4R)-1-methyl-1H,4H,5H,6H-cyclopenta-[d]imidazol-4-yl]-1H-pyrazole-4-carboxamide]
1 nM	324 nM	> 10000 nM	Cc1nc(N2CC3C(C2)C3(F)F)ccc1Cn1cc(C(=O)N[C@@H]2CCc3c2ncn3C)c(CO)n1 (stereo partly drawn) [Example 107, 1-[(6-{6,6-Difluoro-3-azabicyclo[3.1.0]hexan-3-yl}-2-methylpyridin-3-yl)methyl]-3-(hydroxymethyl)-N-[(4R)-1-methyl-1H,4H,5H,6H-cyclopenta[d]imidazol-4-yl]-1H-pyrazole-4-carboxamide]
